For one assay, the target named is T1, SRC (Homo sapiens, UniProt P12931).
T1 construct: purchased Carna Biosciences
Kind of assay: In vitro kinase assay, SRC (Caliper EZ Reader conversion). Conditions: read-out: SRC IC50. Type of assay: biochemical. The procedure:
(§1) The effect of the compounds on the activity of SRC and PAK1 kinase were assessed. SRC and PAK1 kinase enzymes were obtained from Carna Biosciences.
Test compounds were dissolved in 100% DMSO to prepare a 20 mM stock. Compounds were stored in −20° C. and protected from light. […] Saracatinib was used as a positive control for the SRC assay, and FRAX597 was used as a positive control for the PAK1 assay. For the positive controls, a 3-fold serial dilution was made to achieve a total of 10 concentrations. 10 μL 1× Kinase buffer was used as the negative control.
First, 250 nL of the compounds at each dilution were transferred into wells of a 384-well plate. […] Then, 10 μL of enzyme mix was added to the 384-well plate, and the enzymes and compounds were pre-incubated at room temperature for 10 minutes. […] Then, 15 μL of substrate mix was added to a 384-well plate and reacted at room temperature for 30 min and 60 min. The reaction was stopped by adding 30 μL of the stop buffer, and the conversion rate was read using a Caliper EZ Reader.
(§2) Percent inhibition is calculated according to the following equation: […]
(§3) wherein “Conversion %_sample” is the conversion percentage value of the sample; “Conversion %_min” is the average conversion percentage value of the negative control; and “Conversion %_max” is the average conversion percentage value of the positive control.
(§4) The dose-response curve was fitted using GraphPad Prism software (version 5, […]), and the IC50 values for each compounds were calculated by log(inhibitor) vs. response using a variable slope program with the following formula:
(§5) Y=Bottom+(Top-Bottom)/(1+10^((Log IC50−X)*HillSlope))

The target in another assay is PAK1 (Homo sapiens, UniProt Q13153). The assay can be described thus: In vitro kinase assay, PAK1 (Caliper EZ Reader conversion). It is filed as biochemical. Further details: purchased Carna Biosciences. The procedure:
as §1
Test compounds were dissolved in 100% DMSO to prepare a 20 mM stock. Compounds were stored in −20° C. and protected from light. A 100×solution of the compounds were prepared, from which 4-fold serial dilutions was made to achieve a total of 6 concentrations. Saracatinib was used as a positive control for the SRC assay, and FRAX597 was used as a positive control for the PAK1 assay. For the positive controls, a 3-fold serial dilution was made to achieve a total of 10 concentrations. 10 μL 1× Kinase buffer was used as the negative control.
First, 250 nL of the compounds at each dilution were transferred into wells of a 384-well plate. The PAK1 and SRC kinases were diluted to a 2.5×final concentration with 1×Kinase buffer. Then, 10 μL of enzyme mix was added to the 384-well plate, and the enzymes and compounds were pre-incubated at room temperature for 10 minutes. […] Then, 15 μL of substrate mix was added to a 384-well plate and reacted at room temperature for 30 min and 60 min. The reaction was stopped by adding 30 μL of the stop buffer, and the conversion rate was read using a Caliper EZ Reader.
as §2, §3, §4, §5

The record followed here is US20230303570A1, “KINASE INHIBITORS AND USES THEREOF” (ABM Therapeutics Corporation, priority 2020, published 2023).

T1 sequence (P12931 whole entry): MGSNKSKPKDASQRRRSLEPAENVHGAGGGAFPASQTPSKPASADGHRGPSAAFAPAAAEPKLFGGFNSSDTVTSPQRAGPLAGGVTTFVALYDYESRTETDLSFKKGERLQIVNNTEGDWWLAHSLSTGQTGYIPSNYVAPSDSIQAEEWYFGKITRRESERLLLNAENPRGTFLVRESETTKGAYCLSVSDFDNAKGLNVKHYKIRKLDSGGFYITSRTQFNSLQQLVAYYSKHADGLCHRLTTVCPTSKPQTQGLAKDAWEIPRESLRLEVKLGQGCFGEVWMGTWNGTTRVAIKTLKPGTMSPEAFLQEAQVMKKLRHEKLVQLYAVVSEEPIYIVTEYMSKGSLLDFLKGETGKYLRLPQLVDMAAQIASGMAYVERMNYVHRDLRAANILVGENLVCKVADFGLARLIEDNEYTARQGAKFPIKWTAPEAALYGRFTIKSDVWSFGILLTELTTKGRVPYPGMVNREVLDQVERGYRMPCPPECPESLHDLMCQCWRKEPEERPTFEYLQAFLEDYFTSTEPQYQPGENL
Sequence of PAK1 (Q13153 whole entry): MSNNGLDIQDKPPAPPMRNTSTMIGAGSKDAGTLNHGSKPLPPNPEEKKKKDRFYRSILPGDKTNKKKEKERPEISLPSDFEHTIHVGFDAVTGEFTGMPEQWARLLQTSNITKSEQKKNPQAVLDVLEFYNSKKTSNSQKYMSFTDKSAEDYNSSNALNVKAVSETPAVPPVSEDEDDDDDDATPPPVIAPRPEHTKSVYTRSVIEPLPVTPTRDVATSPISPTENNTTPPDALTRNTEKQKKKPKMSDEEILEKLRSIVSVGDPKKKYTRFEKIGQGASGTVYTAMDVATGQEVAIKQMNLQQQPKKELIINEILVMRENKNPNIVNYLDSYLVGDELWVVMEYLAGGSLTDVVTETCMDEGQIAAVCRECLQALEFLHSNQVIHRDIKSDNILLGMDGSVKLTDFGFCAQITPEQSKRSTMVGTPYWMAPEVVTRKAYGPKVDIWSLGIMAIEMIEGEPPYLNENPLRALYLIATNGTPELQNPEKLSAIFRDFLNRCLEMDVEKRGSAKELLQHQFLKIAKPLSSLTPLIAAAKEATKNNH

What is called IC50 is the concentration at which inhibition is half-maximal. Regarding `COc1ccccc1C1=Cc2cnc(Nc3ccc(N4CCNCC4)cc3F)nc2N2CCN=C12` [Compound 31, N-(2-fluoro-4-(piperazin-1-yl)phenyl)-6-(2-methoxyphenyl)-8,9-dihydroimidazo[1′,2′:1,6]pyrido[2,3-d]pyrimidin-2-amine], the results for the half-maximal inhibitory concentration (IC50) at SRC and at PAK1 were 0.1 to 10 µM and over 10 µM, respectively. The like results for `Fc1ccccc1Nc1ncc2c(n1)N1CCN=C1C(c1ccc(Cl)cc1Cl)=C2` [Compound 6, 6-(2,4-dichlorophenyl)-N-(2-fluorophenyl)-8,9-dihydroimidazo[1′,2′:1,6]pyrido[2,3-d]pyrimidin-2-amine] were, in that order, 0.1 to 10 µM and over 10 µM. For `COc1nc(N2CCNCC2)ccc1Nc1ncc2c(n1)N1CCN=C1C(c1ccc(Cl)cc1Cl)=C2` [Compound 35, 6-(2,4-dichlorophenyl)-N-(2-methoxy-6-(piperazin-1-yl)pyridin-3-yl)-8,9-dihydroimidazo[1′,2′:1,6]pyrido[2,3-d]pyrimidin-2-amine], in that order: 0.1 to 10 µM and 0.1 to 10 µM. The like results for `Fc1cc(N2CCNCC2)ccc1Nc1ncc2c(n1)N1CCN=C1C(c1ccccc1Cl)=C2` [Compound 12, 6-(2-chlorophenyl)-N-(2-fluoro-4-(piperazin-1-yl)phenyl)-8,9-dihydroimidazo[1′,2′:1,6]pyrido[2,3-d]pyrimidin-2-amine] were, in that order, under 0.1 µM and 0.1 to 10 µM. Regarding `Clc1cccc(Cl)c1C1=Cc2cnc(NCCC3CCNCC3)nc2N2CCN=C12` [Compound 49, 6-(2,6-dichlorophenyl)-N-(2-(piperidin-4-yl)ethyl)-8,9-dihydroimidazo[1′,2′:1,6]pyrido[2,3-d]pyrimidin-2-amine], the IC50 was 0.1 to 10 µM on SRC and over 10 µM on PAK1. For `CN(C)CCOc1ccc(Nc2ncc3c(n2)N2CCN=C2C(c2ccccc2Cl)=C3)cc1` [Compound 22, 6-(2-chlorophenyl)-N-(4-(2-(dimethylamino)ethoxy)phenyl)-8,9-dihydroimidazo[1′,2′:1,6]pyrido[2,3-d]pyrimidin-2-amine], the IC50 was under 0.1 µM at SRC and 0.1 to 10 µM against PAK1. For `COc1cccc(Nc2ncc3c(n2)N2CCN=C2C(c2ccccc2Cl)=C3)c1` [Compound 17, 6-(2-chlorophenyl)-N-(3-methoxyphenyl)-8,9-dihydroimidazo[1′,2′:1,6]pyrido[2,3-d]pyrimidin-2-amine], in that order: under 0.1 µM and over 10 µM.

On to `C1=C(c2ccccc2)C2=NCCN2c2nc(Nc3ccncc3)ncc21` [Compound 43, 6-phenyl-N-(pyridin-4-yl)-8,9-dihydroimidazo[1′,2′:1,6]pyrido[2,3-d]pyrimidin-2-amine], for which the 50% inhibitory concentration (IC50) on SRC is 0.1 to 10 µM; at PAK1, over 10 µM. As for `Cc1ccc(Nc2ncc3c(n2)N2CCN=C2C(c2ccccc2Cl)=C3)cc1F` [Compound 20, 6-(2-chlorophenyl)-N-(3-fluoro-4-methylphenyl)-8,9-dihydroimidazo[1′,2′:1,6]pyrido[2,3-d]pyrimidin-2-amine], the figures for the half-inhibitory concentration (IC50) on SRC and at PAK1 were under 0.1 µM and over 10 µM, respectively. For `CNc1ncc2c(n1)N1CCCN=C1C(c1ccc(-n3ccnc(C)c3=O)cc1)=C2` [Compound 64, 3-methyl-1-(4-(2-(methylamino)-9,10-dihydro-8H-pyrido[1,6-a:2,3-d′]dipyrimidin-6-yl)phenyl)pyrazin-2(1H)-one], in that order: over 10 µM and over 10 µM. In the case of `CSc1cccc(Nc2ncc3c(n2)N2CCN=C2C(c2ccccc2Cl)=C3)c1` [Compound 18, 6-(2-chlorophenyl)-N-(3-(methylthio)phenyl)-8,9-dihydroimidazo[1′,2′:1,6]pyrido[2,3-d]pyrimidin-2-amine], the results for the IC50 at SRC and against PAK1 were under 0.1 µM and over 10 µM, respectively.

In the case of `Fc1cc(N2CCNCC2)ccc1Nc1ncc2c(n1)N1CCN=C1C(c1ccccc1)=C2` [Compound 29, N-(2-fluoro-4-(piperazin-1-yl)phenyl)-6-phenyl-8,9-dihydroimidazo[1′,2′:1,6]pyrido[2,3-d]pyrimidin-2-amine], the 50% inhibitory concentration (IC50) was 0.1 to 10 µM on SRC and over 10 µM on PAK1. In the case of `COc1nc(N2CCNCC2)ccc1Nc1ncc2c(n1)N1CCCN=C1C(c1ccc(Cl)cc1Cl)=C2` [Compound 70, 6-(2,4-dichlorophenyl)-N-(2-methoxy-6-(piperazin-1-yl)pyridin-3-yl)-9,10-dihydro-8H-pyrido[1,6-a:2,3-d′]dipyrimidin-2-amine], the IC50 at SRC was 0.1 to 10 µM; at PAK1 it was over 10 µM. The like results for `COc1nc(N2CCNCC2)ccc1Nc1ncc2c(n1)N1CCN=C1C(C#Cc1cccnc1)=C2` [Compound 40, N-(2-methoxy-6-(piperazin-1-yl)pyridin-3-yl)-6-(pyridin-3-ylethynyl)-8,9-dihydroimidazo[1′,2′:1,6]pyrido[2,3-d]pyrimidin-2-amine] were, in that order, over 10 µM and over 10 µM. For `C1=C(c2ccccn2)C2=NCCN2c2nc(Nc3ccncc3)ncc21` [Compound 44, 6-(pyridin-2-yl)-N-(pyridin-4-yl)-8,9-dihydroimidazo[1′,2′:1,6]pyrido[2,3-d]pyrimidin-2-amine], in that order: 0.1 to 10 µM and over 10 µM. The like results for `Fc1cc(Nc2ncc3c(n2)N2CCN=C2C(c2ccccc2)=C3)ccc1N1CCNCC1` [Compound 27, N-(3-fluoro-4-(piperazin-1-yl)phenyl)-6-phenyl-8,9-dihydroimidazo[1′,2′:1,6]pyrido[2,3-d]pyrimidin-2-amine] were, in that order, under 0.1 µM and over 10 µM.

`Fc1cc(Nc2ncc3c(n2)N2CCCN=C2C(c2ccc(Cl)cc2Cl)=C3)ccc1N1CCNCC1` [Compound 69, 6-(2,4-dichlorophenyl)-N-(3-fluoro-4-(piperazin-1-yl)phenyl)-9,10-dihydro-8H-pyrido[1,6-a:2,3-d′]dipyrimidin-2-amine]: the half-maximal inhibitory concentration (IC50) was under 0.1 µM on SRC and 0.1 to 10 µM against PAK1. For `Cc1ccccc1C1=Cc2cnc(Nc3ccc(N4CCNCC4)cc3F)nc2N2CCN=C12` [Compound 30, N-(2-fluoro-4-(piperazin-1-yl)phenyl)-6-(o-tolyl)-8,9-dihydroimidazo[1′,2′:1,6]pyrido[2,3-d]pyrimidin-2-amine], the IC50 on PAK1 is over 10 µM. For `Clc1ccc(C2=Cc3cnc(NC4CCOCC4)nc3N3CCN=C23)c(Cl)c1` [Compound 5, 6-(2,4-dichlorophenyl)-N-(tetrahydro-2H-pyran-4-yl)-8,9-dihydroimidazo[1′,2′:1,6]pyrido[2,3-d]pyrimidin-2-amine], the IC50 at SRC and against PAK1 was over 10 µM in each case. `COc1nc(N2CCNCC2)ccc1Nc1ncc2c(n1)N1CCN=C1C(c1ccccc1)=C2` [Compound 37, N-(2-methoxy-6-(piperazin-1-yl)pyridin-3-yl)-6-phenyl-8,9-dihydroimidazo[1′,2′:1,6]pyrido[2,3-d]pyrimidin-2-amine] gave an IC50 against PAK1 of over 10 µM. The same measure, in the same setting: under `Clc1ccccc1C1=Cc2cnc(Nc3ccc(N4CCOCC4)cc3)nc2N2CCN=C12` [Compound 89, 6-(2-chlorophenyl)-N-(4-morpholinophenyl)-8,9-dihydroimidazo[1′,2′:1,6]pyrido[2,3-d]pyrimidin-2-amine] stands 0.1 to 10 µM; under `CN1CCN(c2ccc(Nc3ncc4c(n3)N3CCN=C3C(c3ccc(Cl)cc3Cl)=C4)cc2F)CC1` [Compound 2, 6-(2,4-dichlorophenyl)-N-(3-fluoro-4-(4-methylpiperazin-1-yl)phenyl)-8,9-dihydroimidazo[1′,2′:1,6]pyrido[2,3-d]pyrimidin-2-amine], under 0.1 µM.
